Measured values as given in publication PMC8500670, “A selective WDR5 degrader inhibits acute myeloid leukemia in patient-derived mouse models” (Science translational medicine, 2021).

Legend:
Experiment in all cases: biochemical
Set-up in all cases: kinase selectivity panel, single concentration, duplicate
[1] = target: JAK3 (Homo sapiens, UniProt P52333)
Protocol: (§1) We next assessed selectivity of MS67 against 22 protein methyltransferases (table S2) and a broad panel of common drug targets including 45 kinases (table S3) and 44 G protein–coupled receptors (GPCR), ion channels, and transporters (table S4). […] We subsequently determined that MS67 had moderate binding affinity (Ki = 1.0 ± 0.8 μM) to Sigma 2 receptor (fig. S10).

[2] = target: T1, TRKA (Homo sapiens, UniProt P04629)
T1 construct: gene NTRK1
Protocol: as §1

[3] = target: T2, MAPKAP-K2 (Homo sapiens, UniProt P49137)
T2 construct: gene MAPKAPK2
Protocol: as §1

[4] = target: T3, MAPK2 (Homo sapiens, UniProt P28482)
T3 construct: gene MAPK1
Protocol: as §1

[5] = target: T4, Abl (Homo sapiens, UniProt P00519)
T4 construct: gene ABL1
Protocol: as §1

[6] = target: EphA3 (Homo sapiens, UniProt P29320)
Protocol: as §1

[7] = target: T5, IKKα (Homo sapiens, UniProt O15111)
T5 construct: gene CHUK
Protocol: as §1

[8] = target: CDK2/cyclinA (Homo sapiens, UniProt P24941)
Protocol: as §1

[9] = target: T6, Mnk2 (Homo sapiens, UniProt Q9HBH9)
T6 construct: gene MKNK2
Protocol: as §1

[10] = target: MAP4K4 (Homo sapiens, UniProt O95819)
Protocol: as §1

[11] = target: CDK1/cyclinB (Homo sapiens, UniProt P06493)
Protocol: as §1

[12] = target: T7, CaMKIIα (Homo sapiens, UniProt Q9UQM7)
T7 construct: gene CAMK2A
Protocol: as §1

[13] = target: NEK2 (Homo sapiens, UniProt P51955)
Protocol: as §1

[14] = target: T8, SGK (Homo sapiens, UniProt O00141)
T8 construct: gene SGK1
Protocol: as §1

[15] = target: T9, PKCβII (Homo sapiens, UniProt P05771)
T9 construct: gene PRKCB; isoform beta II
Protocol: as §1

[16] = target: KDR (Homo sapiens, UniProt P35968)
Protocol: as §1

[17] = target: T10, ROCK-I (Homo sapiens, UniProt Q13464)
T10 construct: gene ROCK1
Protocol: as §1

[18] = target: FGFR1 (Homo sapiens, UniProt P11362)
Protocol: as §1

[19] = target: FGFR3 (Homo sapiens, UniProt P22607)
Protocol: as §1

[20] = target: T11, JNK1α1 (Homo sapiens, UniProt P45983)
T11 construct: gene MAPK8; isoform alpha1
Protocol: as §1

[21] = target: T12, TAO2 (Homo sapiens, UniProt Q9UL54)
T12 construct: gene TAOK2
Protocol: as §1

[22] = target: T13, Aurora-A (Homo sapiens, UniProt O14965)
T13 construct: gene AURKA
Protocol: as §1

[23] = target: T14, GSK3β (Homo sapiens, UniProt P49841)
T14 construct: gene GSK3B
Protocol: as §1

[24] = target: PAK4 (Homo sapiens, UniProt O96013)
Protocol: as §1

Measured: inhibition at 1 µM

T2 sequence (P49137 whole entry): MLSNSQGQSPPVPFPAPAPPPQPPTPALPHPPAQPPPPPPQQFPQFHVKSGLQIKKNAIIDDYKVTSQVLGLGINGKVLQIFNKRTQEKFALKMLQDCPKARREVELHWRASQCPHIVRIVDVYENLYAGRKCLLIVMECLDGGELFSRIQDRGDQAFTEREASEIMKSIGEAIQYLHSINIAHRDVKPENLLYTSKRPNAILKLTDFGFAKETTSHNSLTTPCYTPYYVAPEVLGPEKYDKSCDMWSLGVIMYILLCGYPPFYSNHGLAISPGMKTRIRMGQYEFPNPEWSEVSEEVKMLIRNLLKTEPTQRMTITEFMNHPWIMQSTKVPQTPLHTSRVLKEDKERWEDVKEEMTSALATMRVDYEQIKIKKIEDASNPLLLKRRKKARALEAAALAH
T8 sequence (O00141 whole entry): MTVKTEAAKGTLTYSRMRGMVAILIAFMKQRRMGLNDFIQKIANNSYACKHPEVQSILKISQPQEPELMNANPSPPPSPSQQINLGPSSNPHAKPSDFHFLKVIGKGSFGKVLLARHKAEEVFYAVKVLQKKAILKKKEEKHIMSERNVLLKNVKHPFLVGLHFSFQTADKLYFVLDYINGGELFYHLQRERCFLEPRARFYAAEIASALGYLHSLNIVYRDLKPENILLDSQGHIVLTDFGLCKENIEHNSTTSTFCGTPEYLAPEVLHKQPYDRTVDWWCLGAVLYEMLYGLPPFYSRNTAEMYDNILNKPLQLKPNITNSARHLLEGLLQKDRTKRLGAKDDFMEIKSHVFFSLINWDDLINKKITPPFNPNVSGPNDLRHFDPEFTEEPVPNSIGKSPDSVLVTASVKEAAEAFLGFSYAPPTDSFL
T13 sequence (O14965 whole entry): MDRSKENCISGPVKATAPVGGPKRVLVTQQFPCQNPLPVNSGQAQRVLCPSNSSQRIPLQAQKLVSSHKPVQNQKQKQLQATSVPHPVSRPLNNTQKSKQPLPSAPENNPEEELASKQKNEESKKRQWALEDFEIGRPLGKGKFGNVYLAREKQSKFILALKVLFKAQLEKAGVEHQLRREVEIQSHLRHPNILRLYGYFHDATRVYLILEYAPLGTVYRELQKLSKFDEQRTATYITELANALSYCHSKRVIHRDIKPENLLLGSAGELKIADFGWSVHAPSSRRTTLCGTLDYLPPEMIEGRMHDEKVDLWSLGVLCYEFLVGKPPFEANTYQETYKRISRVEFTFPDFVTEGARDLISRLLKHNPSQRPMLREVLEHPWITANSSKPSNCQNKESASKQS
T7 sequence (Q9UQM7 whole entry): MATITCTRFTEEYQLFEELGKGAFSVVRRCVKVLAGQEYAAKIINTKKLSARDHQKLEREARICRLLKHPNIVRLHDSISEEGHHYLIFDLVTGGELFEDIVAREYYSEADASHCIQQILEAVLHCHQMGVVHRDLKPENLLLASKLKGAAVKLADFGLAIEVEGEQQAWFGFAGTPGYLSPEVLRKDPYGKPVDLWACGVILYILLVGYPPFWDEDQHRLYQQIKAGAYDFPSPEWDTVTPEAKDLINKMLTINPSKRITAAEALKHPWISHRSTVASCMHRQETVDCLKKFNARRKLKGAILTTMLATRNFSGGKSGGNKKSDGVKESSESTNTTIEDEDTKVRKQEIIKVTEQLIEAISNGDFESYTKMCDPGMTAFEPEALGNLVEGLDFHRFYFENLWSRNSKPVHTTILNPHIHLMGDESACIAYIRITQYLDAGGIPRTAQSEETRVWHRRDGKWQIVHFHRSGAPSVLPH
Chain of JAK3 (P52333 whole entry): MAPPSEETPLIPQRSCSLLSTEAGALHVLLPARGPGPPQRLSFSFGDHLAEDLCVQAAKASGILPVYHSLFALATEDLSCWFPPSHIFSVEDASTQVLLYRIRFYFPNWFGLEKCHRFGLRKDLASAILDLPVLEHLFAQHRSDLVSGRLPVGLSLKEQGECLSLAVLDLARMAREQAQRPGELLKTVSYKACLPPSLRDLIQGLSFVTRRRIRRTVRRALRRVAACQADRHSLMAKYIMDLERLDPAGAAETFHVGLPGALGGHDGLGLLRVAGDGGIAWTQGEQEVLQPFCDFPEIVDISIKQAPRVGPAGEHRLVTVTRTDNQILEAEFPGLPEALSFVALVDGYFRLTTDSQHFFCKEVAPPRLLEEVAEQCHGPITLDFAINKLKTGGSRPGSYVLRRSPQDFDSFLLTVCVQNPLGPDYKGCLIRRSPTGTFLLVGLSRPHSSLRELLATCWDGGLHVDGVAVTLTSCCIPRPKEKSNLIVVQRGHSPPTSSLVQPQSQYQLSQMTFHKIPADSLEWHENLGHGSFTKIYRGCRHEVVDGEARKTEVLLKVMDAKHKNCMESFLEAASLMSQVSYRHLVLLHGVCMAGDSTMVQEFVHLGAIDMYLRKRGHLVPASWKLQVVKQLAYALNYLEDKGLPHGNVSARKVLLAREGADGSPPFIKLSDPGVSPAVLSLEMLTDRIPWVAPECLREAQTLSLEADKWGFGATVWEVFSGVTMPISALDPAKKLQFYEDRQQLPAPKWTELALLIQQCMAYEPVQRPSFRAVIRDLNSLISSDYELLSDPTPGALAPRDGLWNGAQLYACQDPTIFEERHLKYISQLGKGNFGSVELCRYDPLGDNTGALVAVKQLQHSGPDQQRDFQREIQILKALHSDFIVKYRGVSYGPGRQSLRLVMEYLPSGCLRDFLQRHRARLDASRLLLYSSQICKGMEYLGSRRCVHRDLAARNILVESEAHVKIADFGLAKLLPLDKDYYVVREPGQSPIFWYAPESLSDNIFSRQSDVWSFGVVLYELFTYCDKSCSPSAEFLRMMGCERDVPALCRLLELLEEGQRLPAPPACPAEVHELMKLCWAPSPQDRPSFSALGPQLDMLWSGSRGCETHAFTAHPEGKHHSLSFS
T6 sequence (Q9HBH9 whole entry): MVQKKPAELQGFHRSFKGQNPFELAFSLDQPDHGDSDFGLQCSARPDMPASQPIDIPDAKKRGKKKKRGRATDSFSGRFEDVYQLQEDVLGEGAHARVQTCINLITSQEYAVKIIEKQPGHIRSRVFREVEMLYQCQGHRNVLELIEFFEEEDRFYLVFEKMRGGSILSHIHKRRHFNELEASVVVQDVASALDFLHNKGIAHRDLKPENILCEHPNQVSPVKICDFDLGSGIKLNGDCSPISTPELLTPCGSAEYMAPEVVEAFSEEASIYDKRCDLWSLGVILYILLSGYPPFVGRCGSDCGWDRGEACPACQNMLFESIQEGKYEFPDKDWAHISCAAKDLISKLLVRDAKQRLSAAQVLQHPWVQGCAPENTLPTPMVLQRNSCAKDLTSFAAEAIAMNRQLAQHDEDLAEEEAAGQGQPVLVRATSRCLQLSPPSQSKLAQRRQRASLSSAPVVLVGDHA
T5 sequence (O15111 whole entry): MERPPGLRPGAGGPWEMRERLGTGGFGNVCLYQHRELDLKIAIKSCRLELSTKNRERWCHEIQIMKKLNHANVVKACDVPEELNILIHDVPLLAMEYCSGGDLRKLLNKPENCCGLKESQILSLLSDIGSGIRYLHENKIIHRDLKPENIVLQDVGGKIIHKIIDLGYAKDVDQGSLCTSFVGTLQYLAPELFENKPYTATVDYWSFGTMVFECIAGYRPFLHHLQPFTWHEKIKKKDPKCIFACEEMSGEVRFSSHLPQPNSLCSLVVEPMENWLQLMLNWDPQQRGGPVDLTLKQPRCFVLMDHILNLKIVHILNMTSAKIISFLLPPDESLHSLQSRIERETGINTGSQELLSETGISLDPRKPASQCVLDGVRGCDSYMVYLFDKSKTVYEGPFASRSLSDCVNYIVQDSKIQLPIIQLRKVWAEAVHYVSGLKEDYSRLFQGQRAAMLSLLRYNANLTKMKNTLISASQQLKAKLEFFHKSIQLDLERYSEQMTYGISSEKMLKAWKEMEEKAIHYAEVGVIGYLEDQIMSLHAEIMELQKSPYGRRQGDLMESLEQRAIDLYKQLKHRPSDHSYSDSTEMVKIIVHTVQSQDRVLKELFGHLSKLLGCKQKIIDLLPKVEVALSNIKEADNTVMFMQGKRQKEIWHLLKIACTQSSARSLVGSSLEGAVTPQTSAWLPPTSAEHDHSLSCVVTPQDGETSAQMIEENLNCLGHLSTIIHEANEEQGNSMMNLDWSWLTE
Chain of FGFR3 (P22607 whole entry): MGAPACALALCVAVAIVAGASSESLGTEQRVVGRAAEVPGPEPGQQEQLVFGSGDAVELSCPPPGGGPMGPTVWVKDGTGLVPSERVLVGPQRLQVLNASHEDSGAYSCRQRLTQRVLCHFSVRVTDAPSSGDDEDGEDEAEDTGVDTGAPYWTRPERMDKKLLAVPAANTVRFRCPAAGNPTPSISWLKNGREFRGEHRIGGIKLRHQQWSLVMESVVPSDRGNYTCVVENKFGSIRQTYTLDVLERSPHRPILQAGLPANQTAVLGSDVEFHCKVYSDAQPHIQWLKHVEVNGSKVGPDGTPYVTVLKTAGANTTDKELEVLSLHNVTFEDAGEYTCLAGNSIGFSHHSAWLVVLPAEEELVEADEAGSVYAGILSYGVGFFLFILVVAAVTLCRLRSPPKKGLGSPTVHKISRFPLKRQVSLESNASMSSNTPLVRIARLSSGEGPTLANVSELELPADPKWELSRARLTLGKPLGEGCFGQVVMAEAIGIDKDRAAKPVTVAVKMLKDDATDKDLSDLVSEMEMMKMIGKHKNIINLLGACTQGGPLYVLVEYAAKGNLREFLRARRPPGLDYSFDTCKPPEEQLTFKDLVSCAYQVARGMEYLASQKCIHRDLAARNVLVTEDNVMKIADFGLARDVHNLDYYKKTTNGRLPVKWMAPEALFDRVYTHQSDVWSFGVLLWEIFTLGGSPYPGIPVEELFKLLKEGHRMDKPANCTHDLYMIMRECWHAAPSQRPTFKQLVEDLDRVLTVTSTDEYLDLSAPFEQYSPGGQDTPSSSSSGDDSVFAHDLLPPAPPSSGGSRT

Cc1ncsc1-c1ccc([C@H](C)NC(=O)[C@@H]2C[C@@H](O)CN2C(=O)[C@@H](NC(=O)CNC(=O)c2ccc(F)c(-c3ccc(N4C[C@@H](C)N(C)[C@@H](C)C4)c(NC(=O)c4c[nH]c(=O)cc4C(F)(F)F)c3)c2)C(C)(C)C)cc1 [MS67]
< 10%: all assays above
